This is an account of results in ChEMBL document CHEMBL3870356, “Investigation of a Bicyclo[1.1.1]pentane as a Phenyl Replacement within an LpPLA2 Inhibitor” (ACS Med Chem Lett, 2017).

Converted amounts (≈) assume the structure as drawn.

In general, chromatographic logD refers to lipophilicity estimated from chromatographic retention. In general, solubility (kinetic) refers to the concentration staying in solution when a stock, usually in DMSO, is diluted into the medium. Broadly, the IC50 is the concentration that gives 50% inhibition.

Data set [1] can be described thus: Lipophilicity, logD of the compound at pH 7.4 by chromatography. Format: physicochemical. The conditions noted are these: buffer.
A short description of data set [2]: Clearance in human liver microsomes. Format: ADME.
Data set [3] in a line: Thermodynamic solubility of the compound in fasted state simulated intestinal fluid. Format: ADME. The conditions noted are these: read-out: Therm_solubility.
The nature of data set [4]: Kinetic solubility of the compound by chemiluminescent nitrogen detection assay.
Data set [5] addresses T1, Platelet-activating factor acetylhydrolase (Homo sapiens, UniProt Q13093).
T1 sequence (Q13093 whole entry): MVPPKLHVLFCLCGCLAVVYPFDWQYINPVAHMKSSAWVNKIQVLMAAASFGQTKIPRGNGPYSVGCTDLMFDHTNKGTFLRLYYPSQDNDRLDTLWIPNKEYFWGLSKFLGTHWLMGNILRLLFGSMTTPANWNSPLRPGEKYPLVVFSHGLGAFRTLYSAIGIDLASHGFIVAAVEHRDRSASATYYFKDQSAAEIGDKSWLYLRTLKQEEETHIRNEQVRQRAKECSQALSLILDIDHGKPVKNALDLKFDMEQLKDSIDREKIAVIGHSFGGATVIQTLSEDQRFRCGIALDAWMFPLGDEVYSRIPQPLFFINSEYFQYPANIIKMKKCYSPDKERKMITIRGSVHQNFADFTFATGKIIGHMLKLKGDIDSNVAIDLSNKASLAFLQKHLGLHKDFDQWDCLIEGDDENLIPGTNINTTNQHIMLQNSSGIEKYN
The experiment in a line: Inhibition of human recombinant LpPLA2.

Data set [6] in a line: Permeability of the compound at pH 7.4 by PAMPA. The note with it: read-out: permeability. Format: ADME.

The compound `COCCN1CCC(N(CC23CC(c4ccc(C(F)(F)F)cc4)(C2)C3)C(=O)Cn2c(SCc3cccc(F)c3F)cc(=O)c3ccccc32)CC1` registered a chromatographic logD in data set [1] of 7.06. The same compound had a CLH in data set [2] of 0.76 mL/min/g. Also, the solubility thermodynamic in data set [3] was 635 µg/mL (≈ 875 µM). The same compound yielded a kinetic solubility in data set [4] of 32 µM (≈ 23.2 µg/mL).

As to `CCN(CC)CCN(CC12CC(c3ccc(C(F)(F)F)cc3)(C1)C2)C(=O)Cn1c(SCc2ccc(F)cc2)nc(=O)c2c1CCC2`, the IC50 in data set [5] was 0.398 nM. This compound also registered a chromatographic logD in data set [1] of 7. Besides, the CLH in data set [2] was determined as 1.22 mL/min/g. Also, the Papp in data set [6] stood at 70.5 ×10⁻⁶ cm/s. Besides, the solubility thermodynamic in data set [3] was above 1000 µg/mL. The solubility (kinetic) in data set [4] was determined as 74 µM (≈ 48.6 µg/mL).

Turning to `CCN(CC)CCN(Cc1ccc(-c2ccc(C(F)(F)F)cc2)cc1)C(=O)Cn1c(SCc2ccc(F)cc2)nc(=O)c2c1CCC2` [DARAPLADIB], the solubility thermodynamic in data set [3] was 399 µg/mL (≈ 598 µM). The solubility (kinetic) in data set [4] is 8 µM (≈ 5.33 µg/mL).

`COCCN1CCC(N(Cc2ccc(-c3ccc(C(F)(F)F)cc3)cc2)C(=O)Cn2c(SCc3cccc(F)c3F)cc(=O)c3ccccc32)CC1` [RILAPLADIB]: the chromatographic logD in data set [1] is 6.74. In data set [3], the solubility thermodynamic is 203 µg/mL (≈ 276 µM). Also, the kinetic solubility in data set [4] is below 1 µM.
